Test results: paper PMC9583330, “Quinazoline-4(3H)-one-7-carboxamide Derivatives as Human Soluble Epoxide Hydrolase Inhibitors with Developable 5-Lipoxygenase Activating Protein Inhibition” (ACS Omega, 2022)
Several values for one entry are separate records, joined by “and”; a condition that tells them apart may be missing. Equal values may be shown once.

Legend:
[1] = system: FLAP-mediated cellular LT formation in human neutrophils; experiment: FLAP-dependent 5-LO product formation in intact neutrophils; assay type: cell-based; settings: Neutrophil; for IC50: Homo sapiens, intact neutrophils challenged with 2.5 μM ionophore plus 20 μM arachidonic acid; for activity at 10 µM: 10 μM inhibitor, read-out: 5-LO product formation in neutrophils, remaining activity (% of control) at 10 μM; for activity at 10 µM / activity at 1 µM: human neutrophils, 2.5 μM Ca2+-ionophore A23187, means ± SEM, n = 4–5; for activity at 1 µM: 1 μM inhibitor, read-out: 5-LO product formation in neutrophils, remaining activity (% of control) at 1 μM
Experimental: Neutrophils were isolated from leukocyte concentrates obtained from freshly withdrawn peripheral blood of healthy adult male and female donors which were provided by the Institute of Transfusion Medicine, University Hospital Jena, Germany. The experimental protocol was approved by the ethical committee of the University Hospital Jena, and all methods were performed in accordance with the relevant guidelines and regulations. The leukocyte concentrates were mixed with dextran (from Leuconostoc spp. MW ∼40,000, Sigma Aldrich) for sedimentation of erythrocytes, and the supernatant was centrifuged on lymphocyte separation medium (Histopaque-1077, Sigma Aldrich). Contaminating erythrocytes in the pelleted neutrophils were removed by hypotonic lysis using distilled water. The neutrophils were washed twice in ice-cold PBS pH 7.4 and finally resuspended in PBS pH 7.4 plus 1 mg/mL glucose (PGC buffer).
Human neutrophils [5 × 10^6; in PGC buffer; incubation volume, 1 mL] were preincubated with 0.1% DMSO (vehicle) or with the compounds at 37 °C for 15 min. […] Samples were then subjected to solid-phase extraction on C18-columns (100 mg, UCT, Bristol, PA), and 5-LO products (LTB4 and its trans-isomers, and 5-H(p)ETE) were extracted and analyzed in the presence of internal standard PGB1 by RP-HPLC and UV detection as reported elsewhere.[45]

Human recombinant sEH = molecular target: T1, Human recombinant sEH (Homo sapiens, UniProt P34913); experiment: sEH cell-free fluorescence-based assay (PHOME substrate); assay type: biochemical; settings: means ± SEM, n = 3; for IC50: cell-free assay, human sEH; for remaining activity at 10 µM: residual activity at 10 μM, control = vehicle 100%
T1 construct: made in house; host or cells: Sf9 insect cells, recombinant baculovirus from Dr. B. Hammock
T1 sequence (P34913 1-555): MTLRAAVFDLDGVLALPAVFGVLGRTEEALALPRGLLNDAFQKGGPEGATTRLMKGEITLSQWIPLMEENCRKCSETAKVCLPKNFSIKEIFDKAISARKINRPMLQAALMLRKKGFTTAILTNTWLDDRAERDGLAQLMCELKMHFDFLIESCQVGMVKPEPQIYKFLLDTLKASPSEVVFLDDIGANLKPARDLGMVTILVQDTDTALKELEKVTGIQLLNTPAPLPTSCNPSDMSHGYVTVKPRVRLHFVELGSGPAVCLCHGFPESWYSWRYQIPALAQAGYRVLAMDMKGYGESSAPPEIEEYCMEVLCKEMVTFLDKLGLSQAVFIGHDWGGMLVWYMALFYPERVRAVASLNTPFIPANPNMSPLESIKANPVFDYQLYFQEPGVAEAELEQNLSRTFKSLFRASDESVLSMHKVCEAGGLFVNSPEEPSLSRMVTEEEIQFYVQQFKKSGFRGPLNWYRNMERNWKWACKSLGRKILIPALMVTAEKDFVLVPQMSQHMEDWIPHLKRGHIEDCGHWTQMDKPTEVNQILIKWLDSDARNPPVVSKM
Experimental: Human recombinant sEH was expressed and purified as reported before.[46] In brief, Sf9 cells were infected with a recombinant baculovirus (kindly provided by Dr. B. Hammock, University of California, Davis, CA). Seventy-two hours post-transfection, cells were pelleted and sonicated (3 × 10 s at 4 °C) in lysis buffer containing NaHPO4 (50 mM, pH 8), NaCl (300 mM), glycerol (10%), EDTA (1 mM), phenylmethanesulfonyl fluoride (1 mM), leupeptin (10 μg/mL), and a soybean trypsin inhibitor (60 μg/mL). Supernatants after centrifugation at 100,000 × g (60 min, 4 °C) were subjected to benzylthio-sepharose-affinity chromatography in order to purify sEH by elution with 4-fluorochalcone oxide in PBS containing 1 mM DTT and 1 mM EDTA. Dialyzed and concentrated (Millipore Amicon-Ultra-15 centrifugal filter) enzyme solution was assayed for total protein with a Bio-Rad protein detection kit (Bio-Rad Laboratories, Munich, Germany), and the epoxide hydrolase activity was determined by using a fluorescence-based assay as described before.[47] Shortly, sEH was diluted in Tris buffer (25 mM, pH 7) supplemented with BSA (0.1 mg/mL) to an appropriate enzyme concentration and preincubated with test compounds or vehicle (0.1% DMSO) for 10 min at room temperature (RT). The reaction was started by the addition of 50 μM 3-phenyl-cyano(6-methoxy-2-naphthalenyl)methyl ester-2-oxiraneacetic acid (PHOME), a nonfluorescent compound that is enzymatically converted into fluorescent 6-methoxy-naphtaldehyde at RT. After 60 min, reactions were stopped by ZnSO4 (200 mM) and fluorescence was detected (λem 465 nm, λex 330 nm) using a NOVOstar microplate reader (BMG Labtech GmbH, Ortenberg, Germany), and potential fluorescence of test compounds was subtracted from the read-out, if required.

SMILES	IC50 [1] [µM]	activity at 10 µM [1] [%]	melting point	IC50 (Human recombinant sEH)	remaining activity at 10 µM (Human recombinant sEH) [%]	activity at 1 µM [1] [%]
O=C(O)c1ccc2c(=O)n(-c3ccccc3)c(SCc3ccccc3Cl)nc2c1 [Compound 10, 2-((2-Chlorobenzyl)thio)-4-oxo-3-phenyl-3,4-dihydroquinazoline-7-carboxylic Acid]	2.1 ± 0.4	1.3 ± 0.3	277.8 to 279.8 °C	–	–	–
CC(C)CNC(=O)c1ccc2c(=O)n(-c3ccccc3)c(SCc3ccccc3Cl)nc2c1 [Compound 12, N-Isobutyl-4-oxo-3-phenyl-2-((2-chlorobenzyl)thio)-3,4-dihydroquinazoline-7-carboxamide]	–	–	230.8 to 232.7 °C	7.4 ± 2.8 µM	–	–
CC(C)NC(=O)c1ccc2c(=O)n(-c3ccccc3)c(SCc3ccc(C(F)(F)F)cc3)nc2c1 [Compound 13, N-Isopropyl-4-oxo-3-phenyl-2-((4-(trifluoromethyl)benzyl)thio)-3,4-dihydroquinazoline-7-carboxamide]	–	–	212.5 to 213.3 °C	~10 µM	58.3	–
CC(C)CNC(=O)c1ccc2c(=O)n(-c3ccccc3)c(SCc3ccc(C(F)(F)F)cc3)nc2c1 [Compound 14, N-Isobutyl-4-oxo-3-phenyl-2-((4-(trifluoromethyl)benzyl)thio)-3,4-dihydroquinazoline-7-carboxamide]	–	–	214.7 to 216.6 °C	4.5 ± 0.7 µM	–	–
COC(=O)c1cccc(CSc2nc3cc(C(=O)NCC(C)(C)C)ccc3c(=O)[nH]2)c1 [Compound 20, Methyl 3-(((7-(neopentylcarbamoyl)-4-oxo-3,4-dihydroquinazolin-2-yl)thio)methyl)benzoate]	–	–	269.6 to 271.4 °C	> 10 µM	94.3	–
CC(C)(C)CNC(=O)c1ccc2c(=O)[nH]c(SCc3cccc(C(=O)O)c3)nc2c1 [Compound 21, 3-(((7-(Neopentylcarbamoyl)-4-oxo-3,4-dihydroquinazolin-2-yl)thio)methyl)benzoic Acid]	–	–	250.6 to 252.6 °C	~10 µM	51.9	–
O=C(O)c1ccc2c(=O)[nH]c(SCc3ccccc3Cl)nc2c1 [Compound 22]	~10	50.3 ± 15.5	280 °C (dec.)	–	–	102 ± 5.4
CC(C)(C)CNC(=O)c1ccc2c(=O)[nH]c(SCc3ccccc3Cl)nc2c1 [Compound 34, 2-((2-Chlorobenzyl)thio)-N-neopentyl-4-oxo-3,4-dihydroquinazoline-7-carboxamide]	2.91	4.5 ± 1.2	238.4 to 239.8 °C	0.66 µM and 0.7 µM	–	84.5 ± 4.5
CC(C)(C)CNC(=O)c1ccc2c(=O)[nH]c(SCc3cccc(Cl)c3)nc2c1 [Compound 35, 2-((3-Chlorobenzyl)thio)-N-neopentyl-4-oxo-3,4-dihydroquinazoline-7-carboxamide]	> 10	62.1 ± 12.2	217.1 to 218.4 °C	0.3 ± 0.05 µM	–	93.5 ± 11.4
CC(C)(C)CNC(=O)c1ccc2c(=O)[nH]c(SCc3ccc(Cl)cc3)nc2c1 [Compound 36, 2-((4-Chlorobenzyl)thio)-N-neopentyl-4-oxo-3,4-dihydroquinazoline-7-carboxamide]	< 10	29.7 ± 7.2	220 to 222 °C	1.1 ± 0.1 µM	–	89.5 ± 8.9
CC(C)(C)CNC(=O)c1ccc2c(=O)[nH]c(SCc3ccccc3C(F)(F)F)nc2c1 [Compound 37, 2-((2-(Trifluoromethyl)benzyl)thio)-N-Neopentyl-4-oxo-3,4-dihydroquinazoline-7-carboxamide]	< 10	20.9 ± 12.1	217.9 to 219.3 °C	0.5 ± 0.05 µM	–	97.6 ± 4
CC(C)(C)CNC(=O)c1ccc2c(=O)[nH]c(SCc3ccccc3F)nc2c1 [Compound 39, 2-((2-Fluorobenzyl)thio)-N-neopentyl-4-oxo-3,4-dihydroquinazoline-7-carboxamide]	–	–	210.3 to 212.2 °C	1.3 ± 0.1 µM	–	–
CC(C)(C)CNC(=O)c1ccc2c(=O)[nH]c(SCc3ccccc3C#N)nc2c1 [Compound 40, 2-((2-Cyanobenzyl)thio)-N-neopentyl-4-oxo-3,4-dihydroquinazoline-7-carboxamide]	–	–	190.3 to 192.2 °C	2.4 ± 0.3 µM	–	–
Cc1ccccc1CSc1nc2cc(C(=O)NCC(C)(C)C)ccc2c(=O)[nH]1 [Compound 41, 2-((2-Methylbenzyl)thio)-N-neopentyl-4-oxo-3,4-dihydroquinazoline-7-carboxamide]	–	–	207.4 to 209.4 °C	1.2 ± 0.1 µM	–	–
COc1ccccc1CSc1nc2cc(C(=O)NCC(C)(C)C)ccc2c(=O)[nH]1 [Compound 42, 2-((2-Methoxybenzyl)thio)-N-neopentyl-4-oxo-3,4-dihydroquinazoline-7-carboxamide]	–	–	230.2 to 232.1 °C	3.9 ± 2 µM	–	–
CC(C)(C)CNC(=O)c1ccc2c(=O)[nH]c(SCc3ccccc3OC(F)(F)F)nc2c1 [Compound 43, 2-((2-(Trifluoromethoxy)benzyl)thio)-N-neopentyl-4-oxo-3,4-dihydroquinazoline-7-carboxamide]	–	–	220.9 to 221.9 °C	0.4 ± 0.1 µM	–	–
Cc1ncccc1CSc1nc2cc(C(=O)NCC(C)(C)C)ccc2c(=O)[nH]1 [Compound 44, 2-(((2-Methylpyridin-3-yl)methyl)thio)-N-neopentyl-4-oxo-3,4-dihydroquinazoline-7-carboxamide]	–	–	202.3 to 203.8 °C	11 µM and 11.2 µM	–	–
CC(C)CNC(=O)c1ccc2c(=O)[nH]c(SCc3ccc(C(F)(F)F)cc3)nc2c1 [Compound 46, 2-((4-(Trifluoromethyl)benzyl)thio)-N-isobutyl-4-oxo-3,4-dihydroquinazoline-7-carboxamide]	–	–	262.8 to 264.6 °C	1.5 ± 0.2 µM	–	–
O=C(c1ccc2c(=O)[nH]c(SCc3ccccc3Cl)nc2c1)N1CCNCC1 [Compound 48, 2-((2-Chlorobenzyl)thio)-7-(piperazine-1-carbonyl)quinazolin-4(3H)-one]	–	–	159.9 to 162 °C	> 10 µM	105	–
O=C(c1ccc2c(=O)[nH]c(SCc3ccccc3Cl)nc2c1)N1CCCCC1 [Compound 49]	–	–	175.6 to 177.2 °C	> 10 µM	58.5	–
O=C(c1ccc2c(=O)[nH]c(SCc3ccccc3Cl)nc2c1)N1CCOCC1 [Compound 50, 2-((2-Chlorobenzyl)thio)-7-(morpholine-4-carbonyl)quinazolin-4(3H)-one]	–	–	198.6 to 200.4 °C	> 10 µM	77.7	–
